{"source": "patent US20240208950A1", "about": "“COMPOSITIONS AND METHODS FOR TREATMENT OF CERVICAL AND OVARIAN CANCER” (SOUTH DAKOTA BOARD OF REGENTS, priority 2021, published 2024)", "assay_type_in_all_cases": "cell-based, human", "key": {"SiHa cells": {"tested_on": "SiHa cells", "test": "Cell migration (agarose bead, scratch wound), SiHa", "conditions": "0 and 48 hours", "method": "(§1) FIGS. 7B and 7D show the effect of ORM-Br on motility potential of CaSki cells (FIG. 7B) and SiHa cells (FIG. 7D) as predicted by agarose bead assay. The images shown in FIGS. 7A-7D represent the migratory cells (MC) in control and ORM-Br treated groups at 0 and 48 hours. In FIGS. 7B and 7D, AB means agarose beads. In FIGS. 7A-7D the images magnification were at 4.\n(§2) Cell motility was performed by in vitro scratch wound assay. Briefly, cells were seeded in a 12-wells plate and after 80-90% confluency a standardized wound was made using a 200 μL micropipette tip. Cells were then treated with Br-ORM (10 μM) and photographed by phase contrast microscopy. […]\n(§3) FIG. 14. […] Effect of Br-ORM on cell migration of cervical cancer cells as determined by agarose bead (FIG. 14A), scratch wound healing (FIG. 14B), and Boyden chamber assay (FIG. 14C). […] Closure of wound was determined and photographed using phase contrast microscopy. […] Bar graph represent the quantification of migrated CaSki cells of control and Br-ORM treated groups (FIG. 14C(ii)). […] Effect of Br-ORM treatment on invasion of CaSki cells as determined by a commercially available kit (BD Biosciences) as described in materials and methods. In brief, 24 hours post-treatment of Br-ORM, invaded cells were fixed, stained and counted. […] Bar graph represent the quantification of invaded CaSki cells of control and Br-ORM treated groups (FIG. 14D(ii)). […]"}, "CaSki cells [1]": {"tested_on": "CaSki cells", "test": "Colony formation assay, CaSki", "conditions": "CaSki, 2.5, 5 and 7.5 μM", "method": "FIGS. 5A and 5B show representative colony images of CaSki cells (FIG. 5A) and SiHa cells (FIG. 5B) treated with various concentrations of ORM-Br ranging from […]. FIGS. 5C and 5D represent the quantification of colony formation in CaSki cells (FIG. 5C) and SiHa cells (FIG. 5D) treated with various concentrations of ORM-Br ranging from 0 to 7.5 μM.\nTo determine the effect of Br-ORM on clonogenic potential of CaSki and SiHa cells, a colony formation assay was performed. In brief, 500 cells were seeded per well in a 6-well plate and allowed to stand for the next three days. The cells were treated with Br-ORM with different concentrations (2.5, 5, and 7.5 μM) for seven days and then followed by normal growth media. […] Colonies were fixed in methanol, stained with haematoxylin, and counted using UVP 810 software.\nFIG. 13. […] Cell viability was assessed by MTS assay. […] Bar graphs indicating quantification of colony formation in CaSki (i), and SiHa (ii) cells of cervical cancer with respect to vehicle control. […] Briefly, cervical cancer cells were treated with Br-ORM (10 μM) for 24 hours and the apoptosis inducing effect of Br-ORM was analyzed by Annexin V staining. […] The equal loading of protein in each lane was determined by probing the blots with β-actin antibody (FIG. 13F). […] Br-ORM arrests cell cycle in G1/S phase as determined by flow cytometry. […]"}, "CaSki cells [2]": {"tested_on": "CaSki cells", "test": "Cell migration (agarose bead, scratch wound, Boyden chamber), CaSki", "conditions": "0 and 48 hours", "method": "as §1, §2, §3"}, "[3]": {"tested_on": "HPV16 E6 and E7 transcripts in SiHa cells", "test": "qPCR of HPV E6 and HPV E7 transcripts, SiHa", "conditions": "18 hours"}}, "data": [{"compound": "COc1ccc2c(c1)OC(C)(C)C(c1ccc(Br)cc1)C2c1ccc(OCCN2CCCC2)cc1", "note": "(stereo not shown) [ORM-Br]", "values": [{"measurement": "cell migration / motility", "setting": "SiHa cells", "result": "inhibits the migration"}, {"measurement": "cell migration / motility", "setting": "SiHa cells; listed as Br-ORM", "result": "dose dependent inhibition of migration abilities"}, {"measurement": "colony formation (clonogenic potential)", "setting": "CaSki cells [1]", "result": "suppresses the clonogenic potential"}, {"measurement": "colony formation (clonogenic potential)", "setting": "CaSki cells [1]; listed as Br-ORM", "result": "significantly decreased the number of colonies"}, {"measurement": "cell migration / motility", "setting": "CaSki cells [2]", "result": "inhibits the migration"}, {"measurement": "cell migration / motility", "setting": "CaSki cells [2]; listed as Br-ORM", "result": "dose dependent inhibition of migration abilities"}, {"measurement": "HPV16 E6 and E7 transcripts", "setting": "[3]", "result": "significant downregulation"}]}]}
